Laboratory results as given in ChEMBL document CHEMBL6078681, “Discovery and Optimization of Dihydroquinolin-2(1H)-ones as Novel Highly Selective and Orally Bioavailable Phosphodiesterase 5 Inhibitors for the Treatment of Pulmonary Arterial Hypertension” (J Med Chem, 2024).
One block for each molecule: values may come before it. The source made the active and inactive calls. The calls are words filed in the database; no cut-off is given here.

Key:
[1] = target: cGMP-specific 3',5'-cyclic phosphodiesterase (Homo sapiens, UniProt O76074); assay: Inhibition of PDE5A (unknown origin) using […] as substrate incubated for 1 hr by fluorescence polarization assay
[2] = target: Dual specificity calcium/calmodulin-dependent 3',5'-cyclic nucleotide phosphodiesterase 1C (Homo sapiens, UniProt Q14123); assay: Inhibition of PDE1C (unknown origin) using FAM-cAMP as substrate incubated for 1 hr by fluorescence polarization assay
Dual specificity calcium/calmodulin-dependent 3',5'-cyclic nucleotide phosphodiesterase 1C, sequence (Q14123 whole entry): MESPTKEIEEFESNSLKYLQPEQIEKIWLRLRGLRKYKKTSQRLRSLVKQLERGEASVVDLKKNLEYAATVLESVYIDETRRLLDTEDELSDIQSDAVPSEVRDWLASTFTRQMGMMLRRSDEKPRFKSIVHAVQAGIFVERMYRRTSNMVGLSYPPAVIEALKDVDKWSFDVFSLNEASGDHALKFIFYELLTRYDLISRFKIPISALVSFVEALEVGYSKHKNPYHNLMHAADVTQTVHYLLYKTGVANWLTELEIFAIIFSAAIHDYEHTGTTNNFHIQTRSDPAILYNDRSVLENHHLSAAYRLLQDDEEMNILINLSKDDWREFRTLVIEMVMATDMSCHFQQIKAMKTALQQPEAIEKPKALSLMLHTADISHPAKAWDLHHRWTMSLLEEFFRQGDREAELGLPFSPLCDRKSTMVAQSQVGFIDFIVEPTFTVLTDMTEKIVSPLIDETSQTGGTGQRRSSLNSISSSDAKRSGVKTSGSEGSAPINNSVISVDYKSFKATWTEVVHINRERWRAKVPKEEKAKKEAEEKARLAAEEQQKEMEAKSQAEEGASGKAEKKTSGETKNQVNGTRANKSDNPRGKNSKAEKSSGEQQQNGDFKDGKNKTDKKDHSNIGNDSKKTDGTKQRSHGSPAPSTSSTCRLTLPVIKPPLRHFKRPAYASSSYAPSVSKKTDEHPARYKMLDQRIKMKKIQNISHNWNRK

[3] = target: Cytochrome P450 3A4 (Homo sapiens, UniProt P08684); assay: Inhibition of CYP3A4 (unknown origin); assay type: ADME
[4] = test system: Rattus norvegicus; assay: Anti-Pulmonary arterial hypertension in mono-crotaline-treated Sprague-Dawley rat model assessed as decrease in mPAP level at 2.5 mg/kg for 21 days; assay type: functional, organism-based; settings: time 21.0 day
[5] = Clearance in Sprague-Dawley rat at 2 mg/kg, iv measured for 5 to 1440 mins by LC-MS/MS analysis; assay type: ADME, organism-based; settings: in vivo, time 5-1440 min
[6] = target: Dual 3',5'-cyclic-AMP and -GMP phosphodiesterase 11A (Homo sapiens, UniProt Q9HCR9); assay: Inhibition of PDE11A (unknown origin) using FAM-cAMP as substrate incubated for 1 hr by fluorescence polarization assay
Dual 3',5'-cyclic-AMP and -GMP phosphodiesterase 11A, sequence (Q9HCR9 whole entry): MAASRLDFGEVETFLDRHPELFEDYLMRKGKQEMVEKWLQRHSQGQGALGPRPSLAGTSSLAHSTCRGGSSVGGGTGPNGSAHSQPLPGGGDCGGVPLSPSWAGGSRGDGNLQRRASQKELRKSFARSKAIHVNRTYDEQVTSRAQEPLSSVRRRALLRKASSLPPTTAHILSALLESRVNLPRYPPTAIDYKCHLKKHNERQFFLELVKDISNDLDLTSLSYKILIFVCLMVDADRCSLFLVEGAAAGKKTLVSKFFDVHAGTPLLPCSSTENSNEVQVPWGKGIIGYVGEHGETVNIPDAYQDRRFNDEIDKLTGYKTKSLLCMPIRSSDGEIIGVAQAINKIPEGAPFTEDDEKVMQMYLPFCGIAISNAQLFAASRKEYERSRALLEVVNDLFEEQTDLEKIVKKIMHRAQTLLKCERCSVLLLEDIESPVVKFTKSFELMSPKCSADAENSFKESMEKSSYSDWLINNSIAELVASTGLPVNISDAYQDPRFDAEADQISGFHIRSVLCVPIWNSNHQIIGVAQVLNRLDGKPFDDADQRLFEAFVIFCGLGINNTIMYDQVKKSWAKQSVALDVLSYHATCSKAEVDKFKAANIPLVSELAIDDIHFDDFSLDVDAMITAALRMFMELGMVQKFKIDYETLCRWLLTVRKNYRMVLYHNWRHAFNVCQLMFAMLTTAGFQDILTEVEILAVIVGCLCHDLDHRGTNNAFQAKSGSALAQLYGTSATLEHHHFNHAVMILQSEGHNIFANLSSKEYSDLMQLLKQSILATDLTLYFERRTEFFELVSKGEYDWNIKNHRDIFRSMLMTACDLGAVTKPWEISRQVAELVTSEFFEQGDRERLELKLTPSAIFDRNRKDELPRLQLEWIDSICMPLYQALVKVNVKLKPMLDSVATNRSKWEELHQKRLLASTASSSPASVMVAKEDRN

[7] = Apparent volume of distribution in Sprague-Dawley rat at 2 mg/kg, iv measured for 5 to 1440 mins by LC-MS/MS analysis; assay type: ADME, organism-based; settings: in vivo, time 5-1440 min, read-out: Vz
[8] = Tmax in Sprague-Dawley rat at 10 mg/kg, po measured for 5 to 1440 mins by LC-MS/MS analysis; assay type: ADME, organism-based; settings: in vivo, time 5-1440 min
[9] = Half life in rat liver microsomes; assay type: ADME, Microsome
[10] = target: High affinity cAMP-specific and IBMX-insensitive 3',5'-cyclic phosphodiesterase 8A (Homo sapiens, UniProt O60658); assay: Inhibition of PDE8A1 (unknown origin) using FAM-cAMP as substrate incubated for 1 hr by fluorescence polarization assay
[11] = Half life in Sprague-Dawley rat at 10 mg/kg, po measured for 5 to 1440 mins by LC-MS/MS analysis; assay type: ADME, organism-based; settings: in vivo, time 5-1440 min
[12] = Cmax in Sprague-Dawley rat at 10 mg/kg, po measured for 5 to 1440 mins by LC-MS/MS analysis; assay type: ADME, organism-based; settings: in vivo, time 5-1440 min
[13] = MRT (0 to infinity) in Sprague-Dawley rat at 10 mg/kg, po measured for 5 to 1440 mins by LC-MS/MS analysis; assay type: ADME, organism-based; settings: in vivo, time 5-1440 min
[14] = target: T1, Cytochrome P450 1A2 (Homo sapiens, UniProt P05177); assay: Inhibition of CYP1A2 (unknown origin); assay type: ADME
T1 sequence (P05177 whole entry): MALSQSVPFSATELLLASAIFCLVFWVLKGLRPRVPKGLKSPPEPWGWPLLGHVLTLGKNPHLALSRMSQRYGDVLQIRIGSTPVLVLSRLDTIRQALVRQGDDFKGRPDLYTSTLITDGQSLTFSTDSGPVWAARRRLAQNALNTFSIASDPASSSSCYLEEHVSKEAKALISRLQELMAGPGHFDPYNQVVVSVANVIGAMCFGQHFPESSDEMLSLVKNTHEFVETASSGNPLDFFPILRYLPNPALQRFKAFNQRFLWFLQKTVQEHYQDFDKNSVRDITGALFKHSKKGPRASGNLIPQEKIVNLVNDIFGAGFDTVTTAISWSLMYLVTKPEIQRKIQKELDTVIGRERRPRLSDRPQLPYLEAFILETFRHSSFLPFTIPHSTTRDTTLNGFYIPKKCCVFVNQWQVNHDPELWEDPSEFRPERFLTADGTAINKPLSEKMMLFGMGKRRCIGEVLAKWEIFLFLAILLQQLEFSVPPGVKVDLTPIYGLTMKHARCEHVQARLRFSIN

[15] = target: cGMP-inhibited 3',5'-cyclic phosphodiesterase 3A (Homo sapiens, UniProt Q14432); assay: Inhibition of PDE3A (unknown origin) using FAM-cAMP as substrate incubated for 1 hr by fluorescence polarization assay
[16] = Cmax in Sprague-Dawley rat at 2 mg/kg, iv measured for 5 to 1440 mins by LC-MS/MS analysis; assay type: ADME, organism-based; settings: in vivo, time 5-1440 min
[17] = target: cGMP-dependent 3',5'-cyclic phosphodiesterase (Homo sapiens, UniProt O00408); assay: Inhibition of PDE2A (unknown origin) using FAM-cAMP as substrate incubated for 1 hr by fluorescence polarization assay
[18] = test system: Rattus norvegicus; assay: Anti-Pulmonary arterial hypertension in mono-crotaline-treated Sprague-Dawley rat model assessed as decrease in RVHI level at 2.5 to 5 mg/kg for 21 days; assay type: functional, organism-based; settings: dose 2.5-5 mg/kg, time 21.0 day
[19] = target: Voltage-gated inwardly rectifying potassium channel KCNH2 (Homo sapiens, UniProt Q12809); assay: Inhibition of hERG; assay type: toxicity
Voltage-gated inwardly rectifying potassium channel KCNH2, sequence (Q12809 whole entry): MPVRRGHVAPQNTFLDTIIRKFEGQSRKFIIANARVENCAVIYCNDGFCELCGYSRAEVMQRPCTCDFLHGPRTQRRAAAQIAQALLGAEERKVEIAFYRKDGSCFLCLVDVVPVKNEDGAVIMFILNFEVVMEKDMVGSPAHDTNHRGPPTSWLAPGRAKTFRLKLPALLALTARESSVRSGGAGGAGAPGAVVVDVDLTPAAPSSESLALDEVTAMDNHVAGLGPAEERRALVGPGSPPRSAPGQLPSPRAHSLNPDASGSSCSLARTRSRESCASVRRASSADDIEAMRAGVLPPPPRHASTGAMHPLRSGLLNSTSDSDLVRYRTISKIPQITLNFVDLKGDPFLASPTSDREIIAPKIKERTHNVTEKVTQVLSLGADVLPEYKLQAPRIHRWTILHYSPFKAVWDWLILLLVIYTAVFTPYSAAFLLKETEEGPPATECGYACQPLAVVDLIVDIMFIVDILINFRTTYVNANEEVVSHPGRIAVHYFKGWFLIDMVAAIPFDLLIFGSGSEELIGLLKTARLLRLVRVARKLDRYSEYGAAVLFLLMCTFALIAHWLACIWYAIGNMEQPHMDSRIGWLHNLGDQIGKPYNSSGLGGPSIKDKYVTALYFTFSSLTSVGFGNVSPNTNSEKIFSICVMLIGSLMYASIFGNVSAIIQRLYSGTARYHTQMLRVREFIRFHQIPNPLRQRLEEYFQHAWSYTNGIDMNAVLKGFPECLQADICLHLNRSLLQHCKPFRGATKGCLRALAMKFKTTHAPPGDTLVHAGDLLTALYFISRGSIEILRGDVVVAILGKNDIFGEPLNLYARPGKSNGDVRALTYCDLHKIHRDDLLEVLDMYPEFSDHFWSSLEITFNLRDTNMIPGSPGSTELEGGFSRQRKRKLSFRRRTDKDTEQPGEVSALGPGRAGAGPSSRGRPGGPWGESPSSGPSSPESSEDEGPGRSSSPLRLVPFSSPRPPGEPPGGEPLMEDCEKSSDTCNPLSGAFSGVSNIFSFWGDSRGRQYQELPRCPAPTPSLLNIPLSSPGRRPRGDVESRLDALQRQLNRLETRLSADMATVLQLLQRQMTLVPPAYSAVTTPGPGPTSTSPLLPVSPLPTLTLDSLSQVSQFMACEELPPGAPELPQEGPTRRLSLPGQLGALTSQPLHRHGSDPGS

[20] = Acute toxicity in mouse assessed as drug tolerance at >1.5 g/kg, po; settings: in vivo, 1500 mg/kg
[21] = Clearance in Sprague-Dawley rat at 10 mg/kg, po measured for 5 to 1440 mins by LC-MS/MS analysis; assay type: ADME, organism-based; settings: in vivo, time 5-1440 min
[22] = Toxicity in mono-crotaline-treated Sprague-Dawley rat model of Pulmonary arterial hypertension assessed as body weight change at 2.5 to 5 mg/kg for 21 days; assay type: organism-based; settings: in vivo, 504 h, dose 2.5-5 mg/kg, time 21 day
[23] = target: Cone cGMP-specific 3',5'-cyclic phosphodiesterase subunit alpha' (Homo sapiens, UniProt P51160); assay: Inhibition of PDE6C (unknown origin) using […] as substrate incubated for 1 hr by fluorescence polarization assay
Cone cGMP-specific 3',5'-cyclic phosphodiesterase subunit alpha', sequence (P51160 whole entry): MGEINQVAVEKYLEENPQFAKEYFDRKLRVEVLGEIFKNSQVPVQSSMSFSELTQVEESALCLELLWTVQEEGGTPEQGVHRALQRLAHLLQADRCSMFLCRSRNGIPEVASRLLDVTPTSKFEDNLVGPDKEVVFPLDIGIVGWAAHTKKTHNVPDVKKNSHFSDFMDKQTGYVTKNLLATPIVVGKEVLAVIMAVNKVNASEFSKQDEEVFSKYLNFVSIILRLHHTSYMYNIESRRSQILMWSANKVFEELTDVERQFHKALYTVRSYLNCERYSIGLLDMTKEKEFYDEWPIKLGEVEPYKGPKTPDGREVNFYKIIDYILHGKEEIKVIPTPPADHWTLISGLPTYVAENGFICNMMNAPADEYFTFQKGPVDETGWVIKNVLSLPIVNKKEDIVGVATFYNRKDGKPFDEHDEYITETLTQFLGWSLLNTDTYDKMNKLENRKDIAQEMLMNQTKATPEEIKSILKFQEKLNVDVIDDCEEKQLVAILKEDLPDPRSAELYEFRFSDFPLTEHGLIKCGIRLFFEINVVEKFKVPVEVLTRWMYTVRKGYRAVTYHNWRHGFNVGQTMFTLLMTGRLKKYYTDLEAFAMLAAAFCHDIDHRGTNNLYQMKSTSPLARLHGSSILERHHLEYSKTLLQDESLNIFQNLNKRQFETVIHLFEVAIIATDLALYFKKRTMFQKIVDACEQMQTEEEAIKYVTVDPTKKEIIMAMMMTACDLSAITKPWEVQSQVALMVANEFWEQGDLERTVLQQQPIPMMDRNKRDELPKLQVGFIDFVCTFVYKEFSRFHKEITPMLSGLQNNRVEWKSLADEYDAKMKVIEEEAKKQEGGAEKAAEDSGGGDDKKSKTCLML

[24] = MRT (0 to t) in Sprague-Dawley rat at 10 mg/kg, po measured for 5 to 1440 mins by LC-MS/MS analysis; assay type: ADME, organism-based; settings: in vivo, time 5-1440 min
[25] = target: Cytochrome P450 2D6 (Homo sapiens, UniProt P10635); assay: Inhibition of CYP2D6 (unknown origin); assay type: ADME
Cytochrome P450 2D6, sequence (P10635 whole entry): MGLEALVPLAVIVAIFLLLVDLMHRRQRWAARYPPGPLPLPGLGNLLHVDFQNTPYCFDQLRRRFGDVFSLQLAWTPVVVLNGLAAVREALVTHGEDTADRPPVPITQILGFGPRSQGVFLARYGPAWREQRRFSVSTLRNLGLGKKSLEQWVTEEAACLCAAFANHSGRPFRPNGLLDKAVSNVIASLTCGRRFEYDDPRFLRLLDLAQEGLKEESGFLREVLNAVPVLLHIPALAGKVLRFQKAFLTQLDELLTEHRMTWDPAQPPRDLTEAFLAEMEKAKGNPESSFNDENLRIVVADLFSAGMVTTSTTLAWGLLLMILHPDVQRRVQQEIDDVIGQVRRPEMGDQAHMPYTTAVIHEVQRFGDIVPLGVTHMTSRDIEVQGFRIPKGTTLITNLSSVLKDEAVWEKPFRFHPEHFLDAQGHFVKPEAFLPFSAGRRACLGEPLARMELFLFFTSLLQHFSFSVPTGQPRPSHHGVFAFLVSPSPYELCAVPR

[26] = MRT (0 to infinity) in Sprague-Dawley rat at 2 mg/kg, iv measured for 5 to 1440 mins by LC-MS/MS analysis; assay type: ADME, organism-based; settings: in vivo, time 5-1440 min
[27] = target: Cytochrome P450 2C9 (Homo sapiens, UniProt P11712); assay: Inhibition of CYP2C9 (unknown origin); assay type: ADME
[28] = target: cAMP and cAMP-inhibited cGMP 3',5'-cyclic phosphodiesterase 10A (Homo sapiens, UniProt Q9Y233); assay: Inhibition of PDE10A2 (unknown origin) using FAM-cAMP as substrate incubated for 1 hr by fluorescence polarization assay
[29] = AUC (0 to infinity) in Sprague-Dawley rat at 2 mg/kg, iv measured for 5 to 1440 mins by LC-MS/MS analysis; assay type: ADME, organism-based; settings: in vivo, time 5-1440 min
[30] = AUC (0 to infinity) in Sprague-Dawley rat at 10 mg/kg, po measured for 5 to 1440 mins by LC-MS/MS analysis; assay type: ADME, organism-based; settings: in vivo, time 5-1440 min
[31] = target: 3',5'-cyclic-AMP phosphodiesterase 4D (Homo sapiens, UniProt Q08499); assay: Inhibition of PDE4D2 (unknown origin) using FAM-cAMP as substrate incubated for 1 hr by fluorescence polarization assay
[32] = MRT (0 to t) in Sprague-Dawley rat at 2 mg/kg, iv measured for 5 to 1440 mins by LC-MS/MS analysis; assay type: ADME, organism-based; settings: in vivo, time 5-1440 min
[33] = target: High affinity cGMP-specific 3',5'-cyclic phosphodiesterase 9A (Homo sapiens, UniProt O76083); assay: Inhibition of PDE9A2 (unknown origin) using […] as substrate incubated for 1 hr by fluorescence polarization assay
High affinity cGMP-specific 3',5'-cyclic phosphodiesterase 9A, sequence (O76083 whole entry): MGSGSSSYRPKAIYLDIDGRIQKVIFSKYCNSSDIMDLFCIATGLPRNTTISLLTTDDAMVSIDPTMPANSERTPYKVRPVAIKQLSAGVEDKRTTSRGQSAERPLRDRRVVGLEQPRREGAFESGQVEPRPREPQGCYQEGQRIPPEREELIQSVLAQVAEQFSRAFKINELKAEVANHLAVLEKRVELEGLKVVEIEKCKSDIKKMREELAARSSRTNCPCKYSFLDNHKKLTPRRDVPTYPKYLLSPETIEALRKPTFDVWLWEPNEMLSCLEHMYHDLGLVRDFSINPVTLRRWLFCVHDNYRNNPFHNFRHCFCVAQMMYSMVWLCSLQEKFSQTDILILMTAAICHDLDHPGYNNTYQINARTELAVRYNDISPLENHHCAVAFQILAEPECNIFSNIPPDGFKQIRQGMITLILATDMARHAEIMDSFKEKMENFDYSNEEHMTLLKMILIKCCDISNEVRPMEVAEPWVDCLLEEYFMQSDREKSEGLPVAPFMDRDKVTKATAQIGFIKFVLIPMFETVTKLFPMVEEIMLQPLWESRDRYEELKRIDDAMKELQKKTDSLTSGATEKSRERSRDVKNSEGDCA

[34] = target: High affinity 3',5'-cyclic-AMP phosphodiesterase 7A (Homo sapiens, UniProt Q13946); assay: Inhibition of PDE7A (unknown origin) using FAM-cAMP as substrate incubated for 1 hr by fluorescence polarization assay
[35] = test system: Rattus norvegicus; assay: Anti-Pulmonary arterial hypertension in mono-crotaline-treated Sprague-Dawley rat model assessed as decrease in pulmonary arteriole wall thickness at 2.5 to 5 mg/kg for 21 days by H and E staining based analysis; assay type: functional, organism-based; settings: dose 2.5-5 mg/kg, time 21.0 day
[36] = test system: Rattus norvegicus; assay: Anti-Pulmonary arterial hypertension in mono-crotaline-treated Sprague-Dawley rat model assessed as decrease in mPAP level at 5 mg/kg for 21 days; assay type: functional, organism-based; settings: time 21.0 day
[37] = Tmax in Sprague-Dawley rat at 2 mg/kg, iv measured for 5 to 1440 mins by LC-MS/MS analysis; assay type: ADME, organism-based; settings: in vivo, time 5-1440 min
[38] = target: Cytochrome P450 2C19 (Homo sapiens, UniProt P33261); assay: Inhibition of CYP2C19 (unknown origin); assay type: ADME
[39] = AUC (0 to t) in Sprague-Dawley rat at 10 mg/kg, po measured for 5 to 1440 mins by LC-MS/MS analysis; assay type: ADME, organism-based; settings: in vivo, time 5-1440 min
[40] = Half life in Sprague-Dawley rat at 2 mg/kg, iv measured for 5 to 1440 mins by LC-MS/MS analysis; assay type: ADME, organism-based; settings: in vivo, time 5-1440 min
[41] = Volume of distribution in Sprague-Dawley rat at 10 mg/kg, po measured for 5 to 1440 mins by LC-MS/MS analysis; assay type: ADME, organism-based; settings: in vivo, time 5-1440 min
[42] = Oral bioavailability in Sprague-Dawley rat at 10 mg/kg measured for 5 to 1440 mins by LC-MS/MS analysis; assay type: ADME, organism-based; settings: in vivo, time 5-1440 min
[43] = AUC (0 to t) in Sprague-Dawley rat at 2 mg/kg, iv measured for 5 to 1440 mins by LC-MS/MS analysis; assay type: ADME, organism-based; settings: in vivo, time 5-1440 min

SMILES: Cc1ccc(-c2c(C#N)c(=O)n(Cc3ccc4c(c3)OCO4)c3c(NC(C)c4ccccn4)cccc23)cc1 (stereo unspecified)
IC50 [1]: 0.198 µM

SMILES: Cc1ccc(-c2c(C#N)c(=O)n(Cc3ccccc3)c3c(NCc4ccccc4)cccc23)cc1
IC50 [1]: 0.02 µM

SMILES: CCCCNc1cccc2c(-c3ccc(C)cc3)c(C#N)c(=O)n(Cc3ccccc3)c12
IC50 [1]: 0.03 µM

SMILES: CC(Nc1cccc2c(C3CCCCC3)c(C#N)c(=O)n(Cc3ccccc3)c12)c1ccccn1 (stereo unspecified)
IC50 [1]: 0.034 µM

SMILES: Cc1ccc(-c2c(C#N)c(=O)n(CC3CCCC3)c3c(NC(C)c4ccccn4)cccc23)cc1 (stereo unspecified)
IC50 [1]: 0.055 µM

SMILES: COc1ccc(-c2c(C#N)c(=O)n(Cc3ccccc3)c3c(N[C@H](C)c4ccccn4)cccc23)cc1
IC50 [2]: 10.5 µM
IC50 [3]: > 50 µM
Activity [4]: inactive
clearance [5]: 83.3 mL/min/kg
IC50 [6]: > 100 µM
Vd [7]: 16.3 L/kg
Tmax [8]: 4 h
half-life [9]: 4.41 min
IC50 [10]: > 100 µM
half-life [11]: 2.79 h
Cmax [12]: 58.4 ng/mL
MRT inf [13]: 6.4 h
IC50 [14]: > 50 µM
IC50 [15]: > 100 µM
IC50 [1]: 0.003 µM
Cmax [16]: 985 ng/mL
IC50 [17]: 3.38 µM
Activity [18]: Active
IC50 [19]: > 30 µM
Activity [20]: Non-toxic
CL/F [21]: 525 mL/min/kg
Activity [22]: Non-toxic
IC50 [23]: 0.02 µM
MRT last [24]: 6.3 h
IC50 [25]: > 50 µM
MRT inf [26]: 0.76 h
IC50 [27]: 9.76 µM
IC50 [28]: 21.2 µM
AUC(0-inf) [29]: 399 ng·h/mL
AUC(0-inf) [30]: 340 ng·h/mL
IC50 [31]: 53.3 µM
MRT last [32]: 0.75 h
IC50 [33]: > 100 µM
IC50 [34]: 25.7 µM
Activity [35]: Active
Activity [36]: Active; The Effect Was Marginally Superior To That Of Sildenafil
Tmax [37]: 4.98 min
IC50 [38]: 4.63 µM
AUC(0-t) [39]: 339 ng·h/mL
half-life [40]: 2.25 h
Vz [41]: 126.6 L/kg
bioavailability [42]: 16.8%
AUC(0-t) [43]: 399 ng·h/mL

The next lines start with the values.

IC50 [1]: 0.291 µM
SMILES: Cc1ccc(-c2c(C#N)c(=O)n(Cc3ccccc3)c3ccc(NC(C)c4ccccn4)cc23)cc1 (stereo unspecified)

IC50 [1]: 0.01 µM
SMILES: Cc1ccc(-c2c(C#N)c(=O)n(Cc3ccccc3)c3c(NC(C)c4ccccn4)cccc23)cc1 (stereo unspecified)

IC50 [1]: 0.073 µM
SMILES: Cc1ccc(-c2c(C#N)c(=O)n(Cc3ccncc3)c3c(N[C@H](C)c4ccccn4)cccc23)cc1
